# What was measured:
# ROCK2 = ROCK2 (Homo sapiens (Human), UniProt O75116); experiment: In vitro inhibitory activity against ROCK protein kinase (33P-ATP filter-binding), ROCK2; assay type: biochemical; details: 1 nM ROCK protein kinase, 20 μM Long S6 Kinase substrate peptide
# Procedure: (§1) 1. In Vitro Evaluation of the Inhibitory Activity Against ROCK Protein Kinase
# (§2) Experimental purpose: to detect the inhibitory IC50 value of the compound against ROCK protein kinase.
# (§3) Assay buffer solution: 20 mM 4-hydroxyethylpiperazine ethanesulfonic acid (pH 7.5), 10 mM magnesium chloride, 1 mM ethylene glycol-bis-(2-aminoethyl)tetraacetic acid, 0.02% polyethylene glycol monododecyl ether, 0.02 mg/mL bovine serum albumin, 0.1 mM sodium vanadate, 2 mM dithiothreitol, 1% DMSO.
# (§4) The freshly prepared buffer solution was added to ROCK protein kinase substrate (Long S6 Kinase substrate peptide), at a concentration of 20 μM, then 1 nM ROCK protein kinase was added thereto and stirred evenly. Echo550 was used to add a series of DMSO dilutions containing the test compound (starting from 10 μM, serially diluted by 3 times), the solution was pre-incubated at room temperature for 20 minutes, then ^33P-ATP (radiation intensity 10 μCi/μL) was added to initiate the reaction, and the reaction was performed at room temperature for two hours. Then the solution was filtered by P81 ion exchange paper (Whatman #3698-915) and washed with 0.75% phosphoric acid. The radiation intensity was determined by Filter-Binding method.
# (§5) The protein kinase inhibitory activity of the compound was expressed as the remaining protein kinase activity relative to the blank substrate (simply DMSO). Prism software package (GraphPad Software, San Diego Calif., USA) was used to calculate IC50 value and the curve.
# ROCK1 = ROCK1 (Homo sapiens (Human), UniProt Q13464); experiment: In vitro inhibitory activity against ROCK protein kinase (33P-ATP filter-binding), ROCK1; assay type: biochemical; details: 1 nM ROCK protein kinase, 20 μM Long S6 Kinase substrate peptide
# Sequence of ROCK1 (Q13464 whole entry): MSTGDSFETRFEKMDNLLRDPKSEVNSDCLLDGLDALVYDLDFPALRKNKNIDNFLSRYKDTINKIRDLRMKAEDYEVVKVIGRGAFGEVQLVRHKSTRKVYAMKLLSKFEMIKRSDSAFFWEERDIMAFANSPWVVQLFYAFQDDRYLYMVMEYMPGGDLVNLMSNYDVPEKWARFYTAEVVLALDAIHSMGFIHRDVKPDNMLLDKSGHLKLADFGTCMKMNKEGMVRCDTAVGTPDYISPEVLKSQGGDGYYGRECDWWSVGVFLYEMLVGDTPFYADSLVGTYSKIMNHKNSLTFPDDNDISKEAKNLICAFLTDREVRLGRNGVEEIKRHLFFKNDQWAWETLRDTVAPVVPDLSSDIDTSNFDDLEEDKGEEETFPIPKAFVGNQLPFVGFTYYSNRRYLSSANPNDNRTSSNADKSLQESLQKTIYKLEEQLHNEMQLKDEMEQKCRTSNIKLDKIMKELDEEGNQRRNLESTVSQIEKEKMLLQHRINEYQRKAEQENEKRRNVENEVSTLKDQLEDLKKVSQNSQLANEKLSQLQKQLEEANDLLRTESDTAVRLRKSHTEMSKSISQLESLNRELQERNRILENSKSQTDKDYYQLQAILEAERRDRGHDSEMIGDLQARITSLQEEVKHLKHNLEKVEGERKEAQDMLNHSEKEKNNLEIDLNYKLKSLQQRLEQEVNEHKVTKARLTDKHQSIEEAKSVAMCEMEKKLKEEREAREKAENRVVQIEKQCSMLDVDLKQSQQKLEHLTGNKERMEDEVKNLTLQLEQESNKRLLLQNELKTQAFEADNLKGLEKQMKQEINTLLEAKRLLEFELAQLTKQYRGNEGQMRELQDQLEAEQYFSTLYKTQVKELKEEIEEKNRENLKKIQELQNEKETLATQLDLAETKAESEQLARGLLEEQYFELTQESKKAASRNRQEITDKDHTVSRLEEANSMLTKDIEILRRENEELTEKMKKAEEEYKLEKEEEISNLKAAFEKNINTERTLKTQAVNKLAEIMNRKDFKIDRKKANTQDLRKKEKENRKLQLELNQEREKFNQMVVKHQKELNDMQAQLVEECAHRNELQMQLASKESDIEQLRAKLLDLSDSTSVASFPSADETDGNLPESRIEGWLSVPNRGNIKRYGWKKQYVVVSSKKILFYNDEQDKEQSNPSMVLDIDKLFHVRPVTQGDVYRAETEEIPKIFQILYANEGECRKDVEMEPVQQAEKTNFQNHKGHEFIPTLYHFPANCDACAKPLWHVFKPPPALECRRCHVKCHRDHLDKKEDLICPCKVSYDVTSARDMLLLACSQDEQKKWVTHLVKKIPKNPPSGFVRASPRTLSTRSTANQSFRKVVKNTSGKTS
# Procedure: as §1, §2, §3, §4, §5
# Sequence of ROCK2 (O75116 whole entry): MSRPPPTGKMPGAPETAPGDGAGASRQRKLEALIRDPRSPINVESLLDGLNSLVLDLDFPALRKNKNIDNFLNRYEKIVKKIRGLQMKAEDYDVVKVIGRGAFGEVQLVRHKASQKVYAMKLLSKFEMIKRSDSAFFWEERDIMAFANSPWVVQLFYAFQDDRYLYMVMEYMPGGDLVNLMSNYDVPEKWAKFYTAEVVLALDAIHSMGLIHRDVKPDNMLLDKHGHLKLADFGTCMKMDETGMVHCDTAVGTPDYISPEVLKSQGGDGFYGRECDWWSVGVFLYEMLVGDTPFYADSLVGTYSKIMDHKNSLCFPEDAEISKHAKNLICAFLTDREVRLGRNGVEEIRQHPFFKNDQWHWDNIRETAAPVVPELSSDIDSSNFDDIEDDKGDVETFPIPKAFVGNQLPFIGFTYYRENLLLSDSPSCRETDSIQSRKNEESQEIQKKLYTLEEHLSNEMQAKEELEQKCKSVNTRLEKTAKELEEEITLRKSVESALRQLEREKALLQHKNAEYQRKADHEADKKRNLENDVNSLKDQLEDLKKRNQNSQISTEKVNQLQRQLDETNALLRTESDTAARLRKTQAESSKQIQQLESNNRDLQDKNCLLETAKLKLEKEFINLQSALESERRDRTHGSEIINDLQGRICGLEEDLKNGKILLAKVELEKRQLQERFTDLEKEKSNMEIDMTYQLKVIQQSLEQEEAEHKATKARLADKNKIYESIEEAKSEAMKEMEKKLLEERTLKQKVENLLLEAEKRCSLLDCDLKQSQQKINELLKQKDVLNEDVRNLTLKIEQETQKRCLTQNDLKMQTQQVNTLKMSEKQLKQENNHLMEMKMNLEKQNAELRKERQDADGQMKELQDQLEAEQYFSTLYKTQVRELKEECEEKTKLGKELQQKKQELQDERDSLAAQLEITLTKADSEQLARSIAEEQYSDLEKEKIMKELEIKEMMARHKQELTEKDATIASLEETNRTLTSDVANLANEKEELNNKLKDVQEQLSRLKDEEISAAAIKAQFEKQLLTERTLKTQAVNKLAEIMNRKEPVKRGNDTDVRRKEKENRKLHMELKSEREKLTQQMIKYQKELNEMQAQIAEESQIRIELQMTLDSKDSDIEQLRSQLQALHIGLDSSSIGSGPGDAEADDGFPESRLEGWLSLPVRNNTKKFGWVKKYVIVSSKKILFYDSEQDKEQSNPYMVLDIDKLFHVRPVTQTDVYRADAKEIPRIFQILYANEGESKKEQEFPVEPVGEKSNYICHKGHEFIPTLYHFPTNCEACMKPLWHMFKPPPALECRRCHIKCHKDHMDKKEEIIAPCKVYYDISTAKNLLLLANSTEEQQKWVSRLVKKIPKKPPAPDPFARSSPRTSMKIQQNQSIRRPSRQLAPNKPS
SMILES,IC50 (ROCK2) [nM],IC50 (ROCK1) [nM]
COc1cccc(C(CN)NC(=O)c2cc(-c3ccc4[nH]nc(C)c4c3)cc3cccnc23)c1 (stereo not drawn) [Compound 34],17,1430
COc1cccc(C(CN2CCNCC2)NC(=O)c2cccc(-c3ccc4[nH]nc(F)c4c3)c2)c1 (stereo not drawn) [Compound 55],51,4120
COc1cccc(C(CN2CCCC2)NC(=O)c2cccc(-c3ccc4[nH]nc(C)c4c3)c2)c1 (stereo not drawn) [Compound 37],7,290
COc1cccc(C(CNC(C)C)NC(=O)c2cc(-c3ccc4[nH]nc(C)c4c3)ccn2)c1 (stereo not drawn) [Compound 70],24,
O=C(NC(CCO)c1cccc(Cl)c1)c1cccc(-c2ccc3[nH]ncc3c2)c1 (stereo not drawn) [Compound 13],16,139
COc1cccc(C(CN)NC(=O)c2cccc(-c3cc(OC)c4[nH]ncc4c3)c2)c1 (stereo not drawn) [Compound 71],9,758
COc1cccc(C(CN)NC(=O)c2cccc(-c3ccc4[nH]nc(N)c4c3)c2)c1 (stereo not drawn) [Compound 29],7,65
NCC(NC(=O)c1cccc(-c2ccc3[nH]nc(F)c3c2)c1)c1cccc(F)c1 (stereo not drawn) [Compound 41],21,
COc1cccc(C(CN)NC(=O)c2cccc(-c3ccc4[nH]nc(F)c4c3)c2)c1 (stereo not drawn) [Compound 54],21,180
COc1cccc(C(CCO)NC(=O)c2cccc(-c3ccc4[nH]ncc4c3)c2)c1 (stereo not drawn) [Compound 2],< 1,79
COc1cccc(C(CCO)NC(=O)c2ccnc(-c3ccc4[nH]ncc4c3)c2)c1 (stereo not drawn) [Compound 1],21,1640
COc1cccc(C(CCO)NC(=O)c2cncc(-c3ccc4[nH]ncc4c3)c2)c1 (stereo not drawn) [Compound 3],11,765
COc1cccc(C(CN)NC(=O)c2cc(-c3ccc4[nH]nc(C)c4c3)cc3c2CNC3)c1 (stereo not drawn) [Compound 33],16,
COc1cccc(C(CN)NC(=O)c2cc(-c3ccc4[nH]nc(C)c4c3)ccc2OC(F)F)c1 (stereo not drawn) [Compound 47],12,67
Cc1n[nH]c2ccc(-c3cccc(C(=O)NC(CN)c4cccc(OC5CC5)c4)c3)cc12 (stereo not drawn) [Compound 63],35,
O=C(NC(CO)c1cccc(F)c1)c1cccc(-c2ccc3[nH]ncc3c2)c1 (stereo not drawn) [Compound 22],6,52
COc1cccc(C(CO)NC(=O)c2cc(-c3ccc4[nH]ncc4c3)ccc2F)c1 (stereo not drawn) [Compound 15],12,278
COc1cccc(C(CN)NC(=O)c2cc(-c3ccc4[nH]nc(F)c4c3)ccc2OC)c1 (stereo not drawn) [Compound 51],7,50
COc1cccc(C(CN2CCNCC2)NC(=O)c2cccc(-c3ccc4[nH]ncc4c3)c2)c1 (stereo not drawn) [Compound 32],23,343
COc1cccc(C(CN)NC(=O)c2cc(-c3ccc4[nH]nc(C)c4c3)ncn2)c1 (stereo not drawn) [Compound 69],12,
COc1cccc(C(CCN)NC(=O)c2cccc(-c3ccc4[nH]ncc4c3)c2)c1 (stereo not drawn) [Compound 7],4,24
COc1cccc(C(CN2CCNCC2)NC(=O)c2cccc(-c3ccc4[nH]nc(C)c4c3)c2)c1 (stereo not drawn) [Compound 56],44,2300
CNCC(NC(=O)c1cccc(-c2ccc3[nH]nc(C)c3c2)c1)c1cccc(OC)c1 (stereo not drawn) [Compound 65],4,138
O=C(NC(CO)c1cc(F)cc(F)c1)c1cccc(-c2ccc3[nH]ncc3c2)c1 (stereo not drawn) [Compound 17],23,
COc1cccc(C(CN2CCCC2)NC(=O)c2cccc(-c3ccc4[nH]ncc4c3)c2)c1 (stereo not drawn) [Compound 14],8,103

SMILES,IC50 (ROCK2) [nM],IC50 (ROCK1) [nM]
O=C(NC(CO)c1cc(F)ccc1F)c1cccc(-c2ccc3[nH]ncc3c2)c1 (stereo not drawn) [Compound 16],26,259
COc1cccc(C(CN)NC(=O)c2cc(C#N)cc(-c3ccc4[nH]nc(C)c4c3)c2)c1 (stereo not drawn) [Compound 57],58,1260
COc1cccc(C(CN)NC(=O)c2cc(CN3CCCC3)cc(-c3ccc4[nH]nc(F)c4c3)c2)c1 (stereo not drawn) [Compound 58],48,1610
O=C(NC(CN1CCCC1)c1cccc(F)c1)c1cccc(-c2ccc3[nH]ncc3c2)c1 (stereo not drawn) [Compound 24],14,126
COc1cccc(C(CN)NC(=O)c2cccc(-c3ccc4[nH]ncc4c3)c2)c1 (stereo not drawn) [Compound 9],4,25
COc1cccc(C(CN)NC(=O)c2cccc(-c3ccc4[nH]nc(F)c4c3)c2)c1 (stereo not drawn) [Compound 28],13,43
COc1cccc(C(CCN(C)C)NC(=O)c2cccc(-c3ccc4[nH]ncc4c3)c2)c1 (stereo not drawn) [Compound 8],10,166
COc1cccc(C(CN)NC(=O)c2cccc(-c3ccc4[nH]nc(C5CC5)c4c3)c2)c1 (stereo not drawn) [Compound 68],8,
Cc1n[nH]c2ccc(-c3cccc(C(=O)NC(CO)c4cccc(F)c4)c3)cc12 (stereo not drawn) [Compound 59],16,94
O=C(NC(CCO)c1ccccc1F)c1cccc(-c2ccc3[nH]ncc3c2)c1 (stereo not drawn) [Compound 20],35,304
COc1cccc(C(CN(C)C)NC(=O)c2cccc(-c3ccc4[nH]ncc4c3)c2)c1 (stereo not drawn) [Compound 10],6,79
COc1cc(C(=O)NC(CN)c2cccc(OC)c2)cc(-c2ccc3[nH]nc(F)c3c2)c1 (stereo not drawn) [Compound 53],20,1090
COc1cccc(C2(NC(=O)c3cccc(-c4ccc5[nH]nc(F)c5c4)c3)CCNC2)c1 (stereo not drawn) [Compound 45],19,1270
COc1cccc(C(CN)NC(=O)c2cccc(-c3ccc4[nH]nc(C)c4c3)c2)c1 (stereo not drawn) [Compound 30],3,43
Cc1cccc(C(CN)NC(=O)c2cc(-c3ccc4[nH]nc(C)c4c3)ccn2)c1 (stereo not drawn) [Compound 67],22,336
O=C(NC(CO)c1ccc(F)c(F)c1)c1cccc(-c2ccc3[nH]ncc3c2)c1 (stereo not drawn) [Compound 18],29,
NCC(NC(=O)c1cccc(-c2ccc3[nH]ncc3c2)c1)c1cccc(F)c1 (stereo not drawn) [Compound 23],7,29
COc1cccc(C2(NC(=O)c3cccc(-c4ccc5[nH]nc(C)c5c4)c3)CCNC2)c1 (stereo not drawn) [Compound 44],4,106
Cc1n[nH]c2ccc(-c3cccc(C(=O)NC(CN)c4cccc(F)c4)c3)cc12 (stereo not drawn) [Compound 42],4,
O=C(NC(CO)c1cccc(F)c1)c1cccc(-c2ccc3[nH]nc(F)c3c2)c1 (stereo not drawn) [Compound 60],44,215
COc1cccc(C(CCO)NC(=O)c2cc(-c3ccc4[nH]ncc4c3)ccn2)c1 (stereo not drawn) [Compound 4],6,288
COc1cccc(C2(NC(=O)c3cc(-c4ccc5[nH]nc(C)c5c4)ccn3)CCNC2)c1 (stereo not drawn) [Compound 46],8,267
COc1cccc(C(CN)NC(=O)c2cc(-c3ccc4[nH]nc(F)c4c3)ccc2OC(F)F)c1 (stereo not drawn) [Compound 48],9,84
COc1cc(C(=O)NC(CN)c2cccc(OC)c2)cc(-c2ccc3[nH]nc(C)c3c2)c1 (stereo not drawn) [Compound 52],10,182
COc1cccc(CNC(=O)c2cccc(-c3ccc4[nH]ncc4c3)c2)c1 [Compound 21],3,
